Source: publication PMC5557796, “Ligand binding modes from low resolution GPCR models and mutagenesis: chicken bitter taste receptor as a test-case” (Scientific Reports, 2017)

Legend:
ggTas2r1 [1] = molecular target: T1, ggTas2r1 (Gallus gallus, UniProt Q2AB83); assay: FLIPR calcium mobilization, Fluo4-AM; format: cell-based; settings: agonist, HEK 293T with Galpha16gust44
T1 construct: gene TAS2R40; full-length receptor with in-frame N-terminal sst3-tag and C-terminal hsv-tag in pcDNA5/FRT; transient in HEK 293T stably expressing chimeric Galpha16gust44
T1 sequence (Q2AB83 1-311): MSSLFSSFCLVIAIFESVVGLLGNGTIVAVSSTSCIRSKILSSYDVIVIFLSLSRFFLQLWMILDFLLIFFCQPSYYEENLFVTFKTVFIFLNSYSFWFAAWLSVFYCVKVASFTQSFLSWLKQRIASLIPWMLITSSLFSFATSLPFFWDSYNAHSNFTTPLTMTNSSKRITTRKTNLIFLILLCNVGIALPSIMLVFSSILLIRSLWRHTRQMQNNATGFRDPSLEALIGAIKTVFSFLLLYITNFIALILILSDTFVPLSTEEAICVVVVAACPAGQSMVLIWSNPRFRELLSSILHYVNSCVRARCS

ggTas2r1 [2] = molecular target: T1, ggTas2r1; assay: FLIPR calcium mobilization, Fluo4-AM; format: cell-based; settings: agonist; HEK 293T with Galpha16gust44; 2.5 mM probenecid in dye loading

| Structure (SMILES) | dose-response ΔF/F (ggTas2r1 [1]) | other results |
| --- | --- | --- |
| CN(C)CCC(c1ccc(Cl)cc1)c1ccccn1 (stereo not drawn) [chlorpheniramine] | The functional data for receptor constructs stimulated with chlorpheniramine ranges from wild-type like receptor |  |
| OC(CCCN1CCCCC1)(c1ccccc1)c1ccccc1 [diphenidol] | variable decrease in responses compared to the wild-type ggTas2r1 upon stimulation with diphenidol |  |
| O=c1ccc2ccccc2o1 [coumarin] | The small compound coumarin is only a weak agonist for ggTas2r1 |  |
| C=C[C@H]1CN2CC[C@H]1C[C@@H]2[C@@H](O)c1ccnc2ccc(OC)cc12 [quinidine] |  | threshold concentration (ggTas2r1 [2]): ~ 0.3 µM |
| C=C[C@H]1CN2CC[C@H]1C[C@H]2[C@H](O)c1ccnc2ccc(OC)cc12 [quinine] |  | dose-response ΔF/F (ggTas2r1 [1]; tested as quinine sulfate): subjected to calcium-mobilization assays using different concentrations of quinine sulfate |
| O=C(N[C@H](CO)[C@H](O)c1ccc([N+](=O)[O-])cc1)C(Cl)Cl [chloramphenicol] | at high chloramphenicol concentration the maximal signal amplitude is comparable to the native receptor |  |
